We go through six compounds from patent publication US20230149358A1, “COMBINATION CANCER THERAPY WITH PENTAAZA MACROCYCLIC RING COMPLEX AND HORMONE THERAPY AGENT” (Galera Labs, LLC, priority 2020, published 2023).

The test system of data set [1] is LNCaP-MnSOD^K68Q xenografts. Nature of the data set: LNCaP-MnSOD^K68Q hindlimb xenograft growth in nude mice. It is filed as in vivo. Particulars: male nude mice; GC4419 10 mg/kg once per week, ENZ 25 mg/kg/day; 46 days. The method, then:
In FIG. 21(a), clonogenic cell survival experiments were performed in LNCaP-ENZR (left two bars) and LNCaP-MnSOD^K68Q (right two bars) treated with ENZ, with or without GC4419 (20 μM) for 5 days. […] Tumor volumes were measured three times a week for 46 days. For each group n=10. Error bars ±1 SEM. All experiments done in triplicate. **p<0.01.
Thus, it was surmised that restoring SOD activity, using the pentaaza macrocyclic ring complex GC4419, an agent that chemically detoxifies superoxide, would reverse/convert the ENZR to a sensitive phenotype. […] The dose and pharmacokinetics for GC4419 is based on data for murine models^92-93.

Data set [2] concerns MCF7 cells overexpressing MnSOD^K68Q. Kind of data set: MTT assay, MCF7 cells overexpressing MnSOD^K68Q. It is filed as cell-based, human. Conditions: 48 hours. The method, then: In FIGS. 28a-28b, cell lysates of 250 nM, 500 nM, 1 μM cisplatin-resistant and […], 1 nM and 2 nM doxorubicin-resistant MCF7 cells (cultured in drug-containing media for 3 months) were collected and immunoblotted for MnSOD-K68-Ac, MnSOD, actin and tubulin. In FIG. […] After 48 hours, MTT assay is conducted to determine the cell viability after chemotherapy drug treatment.
Cell proliferation was measured using MTT proliferation assay kit (ab211091). 10,000 exponentially growing cells were plated in regular growth medium per well into 96-well plates in triplicate. Cells were treated with specified drugs after overnight and incubated for 48 hours. The treatment media was then discarded and a mixture of 50 μl MTT reagent and 50 μl serum-free media was added into each well and incubated for 3 hours at 37° C. 150 μl of MTT solvent was then added, and the plate was shaken for 15 minutes avoiding light. The absorbance was read at OD=590 nm and used to evaluate cell proliferation.

Another data set concerns MCF7-MnSOD^K68Q cells. Nature of the data set: Clonogenic cell survival, MCF7-MnSOD^K68Q cells. The data set is classed as cell-based, human. The method, then: FIGS. 25a-25b show clonogenic cell survival studies in MCF7-MnSOD^K68Q cells exposed to either: Fulv at 100 nM (in FIG. 25a); or Palb at 0.5 μM (in FIG. 25b) using standard methods. […] Error bars are ±1 SEM. Experiments in triplicate. *** p<0.001.
Clonogenic cell survival assay. For the clonogenic survival analysis, exponentially growing cells were replated using appropriate dilutions, and clonogenic survival was evaluated after 14 days in regular growth medium. Cells were stained with crystal violet, and colonies of >50 cells were counted and utilized to calculate clonogenic survival^46.
To evaluate clonogenic cell survival by testing cell growth at low density, 500 exponentially growing cells were plated in triplicate in 6-well plates using serial dilution, and the growth of the cells was examined throughout 14 days in regular growth medium. Cells were fixed with 70% ethanol for 5 minutes and then stained with 0.5% crystal violet (in 25% methanol) for 20 minutes. Photos of stained plates were taken, and colonies of more than 50 cells were counted and used to calculate clonogenic survival.

The test system of a further data set is T47D-MnSOD^K68Q cells. Kind of data set: Clonogenic cell survival, T47D cells expressing MnSOD^K68Q. It is filed as cell-based, human. Conditions: 1 μM hydroxy-Tam. The method, then:
FIGS. 14a-14g are images and plots that illustrate that loss of SIRT3-induced MnSOD-K68 deacetylation leads to hydroxy-Tam resistance in human breast cancer cells. With respect to FIG. 14a, T47D-MnSOD^WT, T47D-MnSOD^K68R, and T47D-MnSOD^K68D permanent cell lines were selected for hydroxy-Tam resistance in 1 μM for 3 months, and clonogenic cell survival experiments were completed. With respect to FIG. 14b, T47D-shCtrl and T47D-shSIRT3 permanent cell lines were exposed to 1 μM 4-hydroxy-Tam For 24 h (HT), and clonogenic cell survival experiments were done. With respect to FIG. 14c, T47D and T47D-HTR cells, with and without exposure to 1 μM 4-hydroxy-Tam for 24 h (HT), were measured for cytotoxicity by clonogenic survival experiments. […] The cell lysates were analyzed by immunoblotting with anti-MnSOD-K122-Ac (validated as a SIRT3 deacetylation target in Tao et al., 2010, Cancer Cell), anti-MnSOD, anti-OSCP-K139-Ac (validated as a SIRT3 deacetylation target in Tao et al., 2010, Cancer Cell), anti-OSCP, anti-IDH2K413-Ac (validated as a SIRT3 deacetylation target in Someya et al., 2010, Cancer Cell), anti-IDH2, and anti-actin. […]
Clonogenic cell survival assay. For the clonogenic survival analysis, exponentially growing cells were replated using appropriate dilutions, and clonogenic survival was evaluated after 14 days in regular growth medium. […]

In a further data set the test system is adult mice. Particulars: lethal total body irradiation of adult mice; cited from earlier work.
The subject of the next data set is hamster. Conditions: acute radiation-induced oral mucositis; cited from earlier work.
The subject of data set [3] is rat. Particulars: rat model of collagen-induced arthritis; cited from earlier work.
For a further data set, the system named is colon of rats. Conditions: experimental model of colitis; cited from earlier work.
Data set [4] concerns rat. Conditions: rat model of inflammation; cited from earlier work.

As to `CNC(=O)c1ccc(N2C(=S)N(c3ccc(C#N)c(C(F)(F)F)c3)C(=O)C2(C)C)cc1F` [ENZ, enzalutamide, reference compound], in data set [1], the “xenograft growth (tumor volume)” value is listed as “exhibited similar growth characteristics as the control LNCaP cells”. For the compound `COc1cccc2c1C(=O)c1c(O)c3c(c(O)c1C2=O)C[C@@](O)(C(=O)CO)C[C@@H]3O[C@H]1C[C@H](N)[C@H](O)[C@H](C)O1` [DXR, doxorubicin], in data set [2] (DXR 2 nM), the “cell viability (MTT), resistance” value is “exhibited higher resistance”. Consider 4-hydroxytamoxifen [hydroxy-Tam], for which the “cytotoxicity (clonogenic survival), versus cells expressing MnSOD WT or K68R” value with MCF7-MnSOD^K68Q cells (MCF7 cells expressing MnSOD^K68Q, 1 μM hydroxy-Tam for 5 days) was “exhibited significant resistance to the cytotoxicity”; in the data set on T47D-MnSOD^K68Q cells, “exhibited significant resistance to the cytotoxicity”. On to `[Cl-].[Cl-].[Mn+2].c1cc2nc(c1)CN[C@@H]1CCCC[C@H]1NCCN[C@@H]1CCCC[C@H]1NC2` [GC4403], for which the radiation damage entry in the data set on adult mice and in the data set on hamster was “attenuate the radiation damage” each time. For the same compound, in the data set with rat [3], the joint disease result is “prevent joint disease”. Also, the “injury to the colon” value with colon of rats is listed as “very significantly reduce the injury to the colon”. Also, the inflammation result in the data set on rat [4] was “inhibit inflammation”. Take `C[C@]12CC[C@@H]3c4ccc(O)cc4C[C@@H](CCCCCCCCC[S+]([O-])CCCC(F)(F)C(F)(F)F)[C@H]3[C@@H]1CC[C@@H]2O` (some centres unmarked) [Fulv, Fulvestrant]: the “clonogenic cell survival, resistance versus MCF7-MnSOD^WT” value in the data set with MCF7-MnSOD^K68Q cells (Fulv at 100 nM) was “exhibited resistance”. With `[NH2][Pt]([NH2])([Cl])[Cl]` [CDDP, cisplatin], the “cell viability (MTT), resistance” value in data set [2] (CDDP 1 μM) is “exhibited higher resistance”.
